Test results published in patent US7253296B2, “Acylated aminopropanediols and analogues and therapeutic uses thereof” (Genfit, priority 2003, dated 2007).

Experiments:
LDL = assay: Protection against LDL oxidation induced by copper (conjugated diene formation, OD 234 nm); type: biochemical; settings: for intrinsic antioxidant properties (delay of copper-induced LDL oxidation): FIG. 2; for shift of the lag phase latency (conjugated diene formation): relative to control sample, FIG. 2a
Description: Oxidation of LDL is an important modification which plays a major role in the onset and development of atherosclerosis (Jurgens, Hoff et al. 1987). […] Unless otherwise indicated, all reagents were from Sigma (St Quentin, France).
LDL were prepared as described in Lebeau et al. (Lebeau, Furman et al. 2000). The solutions of the test compounds were prepared at 10^−2 M in ethanol and diluted in PBS so that the final concentration ranged from 0.1 to 100 μM with a total ethanol concentration of 1% (VN).
Before oxidation, EDTA was removed from the LDL preparation by dialysis. The oxidation reaction was then carried out at 30° C. by adding 100 μl of 16.6 μM CuSO4 to 800 μl of LDL (125 μg protein/ml) and 100 μl of a test compound solution. The formation of dienes, the species to be followed, was measured by the optical density at 234 nm in the samples treated with the compounds in the presence or absence of copper. Optical density at 234 nm was measured every 10 minutes for 8 hours on a thermostated spectrophotometer (Kontron Uvikon 930). The analyses were carried out in triplicate. A compound was considered to have antioxidant activity when it shifted the lag phase latency relative to the control sample. […] FIG. 2 presents an example of the results obtained with the inventive compounds.

Gal4/hPPARα = molecular target: T1, Gal4/hPPARα (Homo sapiens, UniProt Q07869); assay: Gal4/PPARα transactivation system in HepG2 cells (luciferase reporter); settings: for induction factor (luminescent signal of treated cells divided by that of untreated cells): HepG2 cells, Gal4/PPARα, 24 h, FIG. 3
T1 sequence (Q07869 239-466 limits assumed): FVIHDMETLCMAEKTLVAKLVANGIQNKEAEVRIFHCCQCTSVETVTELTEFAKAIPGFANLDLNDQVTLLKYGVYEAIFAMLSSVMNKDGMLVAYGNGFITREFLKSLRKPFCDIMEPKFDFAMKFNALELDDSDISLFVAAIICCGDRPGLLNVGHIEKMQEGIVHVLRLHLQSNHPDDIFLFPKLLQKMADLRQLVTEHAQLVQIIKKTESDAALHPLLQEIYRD
Description: PPAR activation was tested in vitro in RK13 fibroblast cell lines or in a hematocyte line HepG2 by measuring the transcriptional activity of chimeras composed of the DNA binding domain of the yeast gal4 transcription factor and the ligand binding domain of the different PPARs.
HepG2 cells were from ECACC (Porton Down, UK) and were grown in DMEM medium supplemented with 10% (VN) fetal calf serum, 100 U/ml penicillin (Gibco, Paisley, UK) and 2 mM L-glutamine (Gibco, Paisley, UK). The culture medium was changed every two days. Cells were kept at 37° C. in a humidified 95% air/5% CO2 atmosphere.
The plasmids pG5TkpGL3, pRL-CMV, pGal4-hPPAR□, pGal4-hPPAR□ and pGal4-f have been described by Raspe et al. (Raspe, Madsen et al. 1999).
HepG2 cells were seeded in 24-well culture dishes at 5×10^4 cells/well and transfected for 2 hours with the reporter plasmid pG5TkpGL3 (50 ng/well), the expression vectors pGal4-f, pGal4-mPPARα, pGal4-hPPARα, pGal4-hPPARγ, pGal4-hPPARβ (100 ng/well) and the transfection efficiency control vector pRL-CMV (1 ng/well) according to the previously described protocol (Raspe, Madsen et al. 1999), then incubated for 36 hours with the test compounds. At the end of the experiment, the cells were lysed (Gibco, Paisley, UK) and luciferase activity was determined with a Dual-Luciferase™ Reporter Assay System kit (Promega, Madison, Wis., USA) according to the supplier's instructions. The protein content of the cell extracts was then measured with the Bio-Rad Protein Assay kit (Bio-Rad, Munich, Germany) as directed by the supplier.
The results are expressed as the induction factor (luminescent signal of treated cells divided by luminescent signal of untreated cells) after the different treatments.

| Molecule | melting point | induction factor (luminescent signal of treated cells divided by that of untreated cells) (Gal4/hPPARα; 5 μM) | induction factor (luminescent signal of treated cells divided by that of untreated cells) (Gal4/hPPARα; 15 μM) [fold] | induction factor (luminescent signal of treated cells divided by that of untreated cells) (Gal4/hPPARα; 50 μM) [fold] | induction factor (luminescent signal of treated cells divided by that of untreated cells) (Gal4/hPPARα; 100 μM) [fold] | intrinsic antioxidant properties (delay of copper-induced LDL oxidation) (LDL) | PPARα activation (luciferase activity / luminescent signal), in words (Gal4/hPPARα; cells transfected with pGal4-hPPARα plasmid) | shift of the lag phase latency (conjugated diene formation) (LDL) |
| --- | --- | --- | --- | --- | --- | --- | --- | --- |
| CCCCCCCCCCCCCCCC(=S)OC(CN)CN.Cl.Cl | 224 °C (dec.) |  |  |  |  |  |  |  |
| CCCCCCCCCCCCCCSCC(=O)NCC(O)CO (stereo not shown) [Ex 2, 3-(tetradecylthioacetylamino)propane-1,2-diol] |  | 1.5 fold | 7.7 | 19.8 | 19.2 | exhibit intrinsic antioxidant properties |  | more than 13% |
| CCCCCCCCCCCCCCSCC(=O)NCC(CNC(=O)CSCCCCCCCCCCCCCC)OC(=O)CSCCCCCCCCCCCCCC [Ex 11, 1,3-ditetradecylthioacetylamino-2-(tetradecylthioacetyloxy)propane] |  |  |  |  |  | exhibit intrinsic antioxidant properties |  |  |
| 1,2-(dipalmitoyloxy)-3-tetradecylthioacetylaminopropane [Ex 4] |  |  |  |  |  | exhibit intrinsic antioxidant properties |  | 34.3% |

Continued, in another order:

| melting point | induction factor (luminescent signal of treated cells divided by that of untreated cells) (Gal4/hPPARα; 5 μM) | induction factor (luminescent signal of treated cells divided by that of untreated cells) (Gal4/hPPARα; 15 μM) [fold] | induction factor (luminescent signal of treated cells divided by that of untreated cells) (Gal4/hPPARα; 50 μM) [fold] | induction factor (luminescent signal of treated cells divided by that of untreated cells) (Gal4/hPPARα; 100 μM) [fold] | Molecule | intrinsic antioxidant properties (delay of copper-induced LDL oxidation) (LDL) | PPARα activation (luciferase activity / luminescent signal), in words (Gal4/hPPARα; cells transfected with pGal4-hPPARα plasmid) | shift of the lag phase latency (conjugated diene formation) (LDL) |
| --- | --- | --- | --- | --- | --- | --- | --- | --- |
|  | 1.1 fold | 2.2 | 9.6 | 14.5 | 1,2-(ditetradecylthioacetyloxy)-3-palmitoylaminopropane [Ex 6] | exhibit intrinsic antioxidant properties | induced an increase in the luminescent signal |  |
| 104 to 108 °C |  |  |  |  | CCCCCCCCCCCCCCCC(=O)NCC(O)CO (stereo not shown) [Ex 3, 3-(palmitoylamino)propane-1,2-diol] |  |  |  |
|  | 1,2 fold | 2.5 | 7 | 10.5 | 1,2-(ditetradecylthioacetyloxy)-3-tetradecylthioacetylaminopropane [Ex 5] | exhibit intrinsic antioxidant properties |  |  |
